Patent publication US5693668A, “Acetylcholinesterase inhibitors” (priority 1989, dated 1997)
Where two headings read alike, the source gives them in different places.

What was measured:
[1] = assay type: in vitro ADME, hairless mouse (Outbred Nude mouse); conditions: for skin permeation rate: 50% w/w drug loading
Experimental: An in vitro excised hairless mouse skin/modified Franz Diffusion Cell model was used to evaluate skin permeability of neat MDL 73,745, the title compound of Example 1, and permeation profile of MDL 73,745 from various prototype transdermal delivery systems. Prototype transdermal delivery systems containing MDL 73,745 were prepared in various acrylic, silastic, ethylene vinyl acetate copolymer, and rubber based pressure sensitive adhesives and evaluated in the in vitro skin permeation cell model.
In vitro skin permeation model: For this study an in vitro finite-dose glass diffusion cell (modified Franz Diffusion Cell)/freshly excised hairless mouse skin model was used. The diffusion consists of two parts: (i) a receptor compartment which is an upright reservoir jacketed by a glass chamber on the outside. Experiments were conducted at 37° C. by circulating thermostatically controlled water at 37° C. in this jacket and (ii) donor cap, which is clamped together with the receptor compartment with a metal clamp. A piece of skin/(transdermal formulation) is sandwiched between the donor and the receptor compartments and clamped together. Sampling from the receptor compartment is taken at predetermined time intervals through the sampling port.
Hairless mouse: Outbred Nude mouse {CRL NU/NU (CD1) BR, 6-8 weeks old, male} from Charles River, Mass.
Excised skin: Immediately following sacrifice by CO2 gas, a portion (3.5×3.5 cm) of the full-thickness abdominal skin was carefully excised from the hairless mouse. The dermal side of the skin was carefully cleaned of any adhering subcutaneous tissue and/or blood vessels. Extreme care was taken not to scratch or damage the stratum corneum. Before mounting onto the diffusion cell, each piece of skin was carefully inspected to insure that the skin was not damaged.
(§1) Dermal elution media: A 5% solution of polyethylene glycol 20 Oleyl ether (Trycol®, Emery) in 0.9% sodium chloride was used as the receptor medium for the modified Franz Diffusion Cells. […] Temperature of the dermal elution media was maintained at 37° C. using a thermostated constant temperature circulating water bath.
Skin permeation profile from neat MDL 73,745 and from Prototype formulations: Full-thickness skin, prepared freshly as outlined above, was mounted in a modified Franz Diffusion Cell with the stratum corneum side facing upward. To study the permeation profile of neat MDL 73,745, 50 μl of MDL 73,745 was uniformly applied onto the stratum corneum. The donor cap was placed over the skin and the whole assembly was then securely clamped together. The donor cap was covered with a piece of aluminum foil to reduce the volatilization of MDL 73,745. To evaluate the skin permeation profile of MDL 73,745 from a prototype transdermal formulation, a unit of prototype transdermal system (about 4.9 cm^2 circular) containing MDL 73,745 was placed onto the skin with the drug releasing side in intimate contact with the stratum corneum (slight pressure was applied to insure good contact). The donor cap was placed over the skin and the whole assembly was then securely clamped together.
Dermal elution medium (5% w/w Trycol® in normal saline) was then introduced into the receptor compartment through the sampling port. At predetermined time intervals, the entire volume of the receptor solution was withdrawn and immediately replaced with the same volume of fresh, drug free dermal elution medium (5% w/w Trycol® in normal saline), maintained at 37° C. The concentration of MDL 73,745 was determined by a sensitive HPLC method described under Analytical Method section below.
Analytical Method: An automated high performance liquid chromatograph equipped with a gradient pump (Waters Model 600E), autoinjector/sampler (Waters, Model 715 WISP), and a variable wavelength UV detector (Waters, Model 490) was used. The autoinjector/sampler was maintained at 2° C. to reduce possible evaporation/degradation of MDL 73,745 in the sample. […]

[2] = test system: plasma cholineesterase; test: Inhibition of plasma cholinesterase activity during patch application in dogs; assay type: in vivo, Beagle dog; conditions: `lead` prototype patch, throughout patch application (96 hours)
Experimental: Transdermal Bioavailability of MDL 73,745 from a prototype transdermal delivery system in Beagle Dogs
A `lead` prototype formulation was then evaluted in an in vivo dog model. […] The rate of in vivo transdermal delivery in the dog was calculated to be 7.7 μg/cm^2 /hr.

[3] = Aqueous solubility of MDL 73,745 in Trycol medium; assay type: physicochemical; conditions: in presence of Trycol (polyethylene glycol 20 Oleyl ether), 5% in 0.9% sodium chloride
Experimental: as §1

C[Si](C)(C)c1cccc(C(=O)C(F)(F)F)c1 [MDL 73,745, 2,2,2-Trifluoro-1-(3-trimethylsilylphenyl) ethanone]
rate of transdermal delivery ([1]; 3M acrylic adhesive #9871, 50% w/w drug loading): 13.01 μg/cm^2 /hr
rate of transdermal delivery ([1]; 3M acrylic adhesive #9871, 60% w/w drug loading): 21.04 μg/cm^2 /hr
transdermal delivery profile ([1]; 3M acrylic adhesive #9871 prototypes): constant, zero-order profile
skin permeation rate ([1]; prototype in Gelva 737): 12.95 μg/cm^2 /hr
skin permeation rate ([1]; prototype in Gelva 788): 8.63 μg/cm^2 /hr
skin permeation profile ([1]; DuroTak 72-9718 rubber based PSA prototypes): constant, zero-order profile
rate of transdermal delivery ([1]; DuroTak 72-9718 rubber based PSA, 20% w/w drug loading): 12.92 μg/cm^2 /hr
rate of transdermal delivery ([1]; Eva-Tak 72-9660 prototype containing 50% drug): 33.86 μg/cm^2 /hr
rate of transdermal delivery ([1]; Eva-Tak 72-9660 prototype containing 60% drug): 20.59 μg/cm^2 /hr
transdermal delivery profile ([1]; Eva-Tak 72-9660 prototypes, throughout duration of patch application): controlled, zero-order fashion
rate of transdermal delivery ([1]; Nacor 38-4515 prototype containing 50% w/w drug): 19.18 μg/cm^2 /hr
transport profile through skin ([1]; neat MDL 73,745): controlled zero order fashion
rate of transdermal delivery ([1]; neat MDL 73,745, 50 μl on stratum corneum): 208.21 μg/cm^2 /hr
period of controlled, zero-order transdermal delivery ([1]; prototypes in various acrylic PSA): at least 24 hours
inhibition of plasma cholineesterase activity [2]: inhibition of plasma cholineesterase activity was achieved
aqueous solubility [3]: increases the aqueous solubility
